Laboratory results published in PubChem BioAssay AID1963427 (Molecular Pharmacology Branch, DTP, NCI, 2024).
Where “and” joins values, the source holds several entries; their conditions need not be identical. Identical values can stand only once.

System: 317291-083-R-J1-PDC complex spheroid growth
Test: Anticancer human tumor 317291-083-R-J1-PDC patient-derived soft tissue sarcoma cell line growth inhibition [Asc]
Conditions: for viability, T/C: stronger effect = lower value
Outline: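 Tumor cells were grown as multicellular spheroids with stromal HUVEC and mesenchymal stem cells and treated singly or in combination. Concentrations fell in half-log steps from the clinical Cmax, or from 10 microM where none was known.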

[1] = curve of first compound, second compound 0.0316 µM
[2] = curve of first compound, second compound 0.1 µM
[3] = curve of first compound, second compound 0.316 µM
[4] = curve of first compound, second compound 1 µM
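Also: compound exposure lasted seven days after spheroids formed for three days.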
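For viability, T/C in this document: 100% = DMSO vehicle control wells.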

Molecule `COc1c(OCCCN2CCOCC2)ccc2c3n(c(=NC(=O)c4cnc(N)nc4)nc12)CCN3` + Cc1c(S(C)(=O)=O)c(-c2cc(F)cc(N3CCN(c4ccc(NS(=O)(=O)c5ccc(NC(CCN6CCC(C(=O)OCCCP(=O)(O)O)CC6)CSc6ccccc6)c(S(=O)(=O)C(F)(F)F)c5)cc4)CC3)c2)c(-c2ccc(Cl)cc2)n1C(C)C has an IC50 [1] of 104 nM, an IC50 [2] of 88 nM and an IC50 [3] of 88.4 nM. It also gave an IC50 [4] of 78 nM, an IC50 (curve of first compound, second compound 3.16 µM) of 62.9 nM and an IC50 (curve of first compound, second compound 10 µM) of 95.3 nM. It also gave a viability, T/C (second compound 0.0316 µM, first compound 0.00316 µM) of 116%, a viability, T/C (second compound 0.0316 µM, first compound 0.01 µM) of 116% and a viability, T/C (second compound 0.0316 µM, first compound 0.0316 µM) of 78%. It also gave a viability, T/C (second compound 0.0316 µM, first compound 0.1 µM) of 52.9%, a viability, T/C (second compound 0.0316 µM, first compound 0.316 µM) of 27% and a viability, T/C (second compound 0.0316 µM, first compound 1 µM) of 13%. It also gave a viability, T/C (second compound 0.1 µM, first compound 0.00316 µM) of 106%, a viability, T/C (second compound 0.1 µM, first compound 0.01 µM) of 76.6% and a viability, T/C (second compound 0.1 µM, first compound 0.0316 µM) of 62.5%. It also gave a viability, T/C (second compound 0.1 µM, first compound 0.1 µM) of 54.7%, a viability, T/C (second compound 0.1 µM, first compound 0.316 µM) of 28.1% and a viability, T/C (second compound 0.1 µM, first compound 1 µM) of 13.5%. The viability, T/C (second compound 0.316 µM, first compound 0.00316 µM) was 91.3%, the viability, T/C (second compound 0.316 µM, first compound 0.01 µM) was 85.5% and the viability, T/C (second compound 0.316 µM, first compound 0.0316 µM) was 69.7%. The viability, T/C (second compound 0.316 µM, first compound 0.1 µM) was 44.7%, the viability, T/C (second compound 0.316 µM, first compound 0.316 µM) was 30.1% and the viability, T/C (second compound 0.316 µM, first compound 1 µM) was 11.7%. The viability, T/C (second compound 1 µM, first compound 0.00316 µM) was 86.2%, the viability, T/C (second compound 1 µM, first compound 0.01 µM) was 88% and the viability, T/C (second compound 1 µM, first compound 0.0316 µM) was 63.2%. For the same molecule, the viability, T/C (second compound 1 µM, first compound 0.1 µM) was 44.8%, the viability, T/C (second compound 1 µM, first compound 0.316 µM) was 28.2% and the viability, T/C (second compound 1 µM, first compound 1 µM) was 12.1%. It also gave a viability, T/C (second compound 3.16 µM, first compound 0.00316 µM) of 65.6%, a viability, T/C (second compound 3.16 µM, first compound 0.01 µM) of 54.8% and a viability, T/C (second compound 3.16 µM, first compound 0.0316 µM) of 60.9%. The viability, T/C (second compound 3.16 µM, first compound 0.1 µM) was 43.7%, the viability, T/C (second compound 3.16 µM, first compound 0.316 µM) was 21.3% and the viability, T/C (second compound 3.16 µM, first compound 1 µM) was 9.02%. For the same molecule, the viability, T/C (second compound 10 µM, first compound 0.00316 µM) was 100%, the viability, T/C (second compound 10 µM, first compound 0.01 µM) was 90.2% and the viability, T/C (second compound 10 µM, first compound 0.0316 µM) was 70.7%. It also gave a viability, T/C (second compound 10 µM, first compound 0.1 µM) of 54.2%, a viability, T/C (second compound 10 µM, first compound 0.316 µM) of 19.2% and a viability, T/C (second compound 10 µM, first compound 1 µM) of 7.2%.

`CCN1C(C(=O)NC23CCC(C(=O)O)(CC2)CC3)C(c2cccc(Cl)c2F)C2(C(=O)Nc3cc(Cl)ccc32)C12CCCCC2` (stereo unspecified) + CNC(C)C(=O)NC1CN(S(=O)(=O)c2cccc(S(=O)(=O)N3CCC4CCC(C(=O)NC(c5ccccc5)c5ccccc5)N4C(=O)C(NC(=O)C(C)NC)C3)c2)CCC2CCC(C(=O)NC(c3ccccc3)c3ccccc3)N2C1=O was tested, and the IC50 (curve of first compound, second compound 0.00316 µM) was > 3000 nM, the IC50 (curve of first compound, second compound 0.01 µM) was > 3000 nM and the IC50 [1] was > 3000 nM. The IC50 [2] was > 3000 nM, the IC50 [3] was < 9.49 nM and the IC50 [4] was < 9.49 nM. The viability, T/C (second compound 0.00316 µM, first compound 0.00949 µM) was 86%, the viability, T/C (second compound 0.00316 µM, first compound 0.03 µM) was 113% and the viability, T/C (second compound 0.00316 µM, first compound 0.0949 µM) was 100%. The viability, T/C (second compound 0.00316 µM, first compound 0.3 µM) was 108%, the viability, T/C (second compound 0.00316 µM, first compound 0.949 µM) was 84.6% and the viability, T/C (second compound 0.00316 µM, first compound 3 µM) was 65.1%. The viability, T/C (second compound 0.01 µM, first compound 0.00949 µM) was 68.5%, the viability, T/C (second compound 0.01 µM, first compound 0.03 µM) was 95.9% and the viability, T/C (second compound 0.01 µM, first compound 0.0949 µM) was 83.7%. It also gave a viability, T/C (second compound 0.01 µM, first compound 0.3 µM) of 71.9%, a viability, T/C (second compound 0.01 µM, first compound 0.949 µM) of 63.3% and a viability, T/C (second compound 0.01 µM, first compound 3 µM) of 56.1%. For the same molecule, the viability, T/C (second compound 0.0316 µM, first compound 0.00949 µM) was 82.5%, the viability, T/C (second compound 0.0316 µM, first compound 0.03 µM) was 85.6% and the viability, T/C (second compound 0.0316 µM, first compound 0.0949 µM) was 79.2%. It also gave a viability, T/C (second compound 0.0316 µM, first compound 0.3 µM) of 78.1%, a viability, T/C (second compound 0.0316 µM, first compound 0.949 µM) of 63.8% and a viability, T/C (second compound 0.0316 µM, first compound 3 µM) of 60.5%. It also gave a viability, T/C (second compound 0.1 µM, first compound 0.00949 µM) of 55.4%, a viability, T/C (second compound 0.1 µM, first compound 0.03 µM) of 61.9% and a viability, T/C (second compound 0.1 µM, first compound 0.0949 µM) of 66.2%. For the same molecule, the viability, T/C (second compound 0.1 µM, first compound 0.3 µM) was 67.3%, the viability, T/C (second compound 0.1 µM, first compound 0.949 µM) was 60% and the viability, T/C (second compound 0.1 µM, first compound 3 µM) was 42.5%. For the same molecule, the viability, T/C (second compound 0.316 µM, first compound 0.00949 µM) was 47.5%, the viability, T/C (second compound 0.316 µM, first compound 0.03 µM) was 55.3% and the viability, T/C (second compound 0.316 µM, first compound 0.0949 µM) was 45.5%. The viability, T/C (second compound 0.316 µM, first compound 0.3 µM) was 46.7%, the viability, T/C (second compound 0.316 µM, first compound 0.949 µM) was 49.4% and the viability, T/C (second compound 0.316 µM, first compound 3 µM) was 45.2%. For the same molecule, the viability, T/C (second compound 1 µM, first compound 0.00949 µM) was 41.2%, the viability, T/C (second compound 1 µM, first compound 0.03 µM) was 31.3% and the viability, T/C (second compound 1 µM, first compound 0.0949 µM) was 32.4%. For the same molecule, the viability, T/C (second compound 1 µM, first compound 0.3 µM) was 35.4%, the viability, T/C (second compound 1 µM, first compound 0.949 µM) was 30.5% and the viability, T/C (second compound 1 µM, first compound 3 µM) was 27.8%.

For `CCN1CCN(Cc2ccc(Nc3ncc(F)c(-c4cc(F)c5nc(C)n(C(C)C)c5c4)n3)nc2)CC1`, the viability, T/C (compound 0.00316 µM) was 91.8% and 94.4% and 104%, the viability, T/C (compound 0.01 µM) was 93.8% and 95.1% (2×) and the viability, T/C (compound 0.0316 µM) was 99.1% and 98.7% and 102%. For the same molecule, the viability, T/C (compound 0.1 µM) was 101% and 97.3% and 89.7%, the viability, T/C (compound 0.316 µM) was 72.4% and 84.1% and 82.4% and the viability, T/C (compound 1 µM) was 49.5% and 82.8% and 50.7%. For the same molecule, the IC50 (curve of compound) was > 1000 nM.
